Targets include p38a (Homo sapiens, UniProt Q16539); SRC (Homo sapiens, UniProt P12931); EpHA4 (Homo sapiens, UniProt P54764); NDR2 (Homo sapiens, UniProt Q9Y2H1); CaMK2d (Homo sapiens, UniProt Q13557); DYRK1A (Homo sapiens, UniProt Q13627); NEK7 (Homo sapiens, UniProt Q8TDX7); PIM3 (Homo sapiens, UniProt Q86V86); Erk2 (Homo sapiens, UniProt P28482); CDKL1 (Homo sapiens, UniProt Q00532); SRPK1 (Homo sapiens, UniProt Q96SB4).

Experiment in all cases: biochemical
The next test addresses T1, FECH (Homo sapiens, UniProt P22830).
T1 sequence (P22830 1-423): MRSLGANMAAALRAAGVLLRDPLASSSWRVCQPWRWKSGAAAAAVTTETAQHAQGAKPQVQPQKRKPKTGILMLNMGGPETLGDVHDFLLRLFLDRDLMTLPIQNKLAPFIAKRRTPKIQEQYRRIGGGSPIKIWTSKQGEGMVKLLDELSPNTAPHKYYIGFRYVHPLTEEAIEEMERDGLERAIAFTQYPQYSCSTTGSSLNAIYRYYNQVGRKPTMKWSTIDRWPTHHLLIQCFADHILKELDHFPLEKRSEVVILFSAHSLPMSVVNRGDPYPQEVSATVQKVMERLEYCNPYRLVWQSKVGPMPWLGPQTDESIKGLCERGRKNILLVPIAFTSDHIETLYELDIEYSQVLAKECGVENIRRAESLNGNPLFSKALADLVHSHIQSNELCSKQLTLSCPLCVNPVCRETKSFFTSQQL

For a further test, the target named is T2, DRAK2 (Homo sapiens, UniProt O94768).
T2 sequence (O94768 1-372): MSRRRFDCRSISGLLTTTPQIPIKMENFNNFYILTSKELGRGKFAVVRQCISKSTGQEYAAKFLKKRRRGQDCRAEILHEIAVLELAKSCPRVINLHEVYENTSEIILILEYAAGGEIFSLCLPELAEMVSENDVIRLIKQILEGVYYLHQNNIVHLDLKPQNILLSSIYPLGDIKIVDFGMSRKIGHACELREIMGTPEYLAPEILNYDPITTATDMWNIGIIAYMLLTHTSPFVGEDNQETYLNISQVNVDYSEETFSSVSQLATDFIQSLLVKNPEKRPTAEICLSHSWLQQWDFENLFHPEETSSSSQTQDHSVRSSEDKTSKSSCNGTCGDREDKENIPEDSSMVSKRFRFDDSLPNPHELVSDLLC

In the next test the target is T3, DCAMKL1 (Homo sapiens, UniProt O15075).
T3 sequence (O15075 1-740): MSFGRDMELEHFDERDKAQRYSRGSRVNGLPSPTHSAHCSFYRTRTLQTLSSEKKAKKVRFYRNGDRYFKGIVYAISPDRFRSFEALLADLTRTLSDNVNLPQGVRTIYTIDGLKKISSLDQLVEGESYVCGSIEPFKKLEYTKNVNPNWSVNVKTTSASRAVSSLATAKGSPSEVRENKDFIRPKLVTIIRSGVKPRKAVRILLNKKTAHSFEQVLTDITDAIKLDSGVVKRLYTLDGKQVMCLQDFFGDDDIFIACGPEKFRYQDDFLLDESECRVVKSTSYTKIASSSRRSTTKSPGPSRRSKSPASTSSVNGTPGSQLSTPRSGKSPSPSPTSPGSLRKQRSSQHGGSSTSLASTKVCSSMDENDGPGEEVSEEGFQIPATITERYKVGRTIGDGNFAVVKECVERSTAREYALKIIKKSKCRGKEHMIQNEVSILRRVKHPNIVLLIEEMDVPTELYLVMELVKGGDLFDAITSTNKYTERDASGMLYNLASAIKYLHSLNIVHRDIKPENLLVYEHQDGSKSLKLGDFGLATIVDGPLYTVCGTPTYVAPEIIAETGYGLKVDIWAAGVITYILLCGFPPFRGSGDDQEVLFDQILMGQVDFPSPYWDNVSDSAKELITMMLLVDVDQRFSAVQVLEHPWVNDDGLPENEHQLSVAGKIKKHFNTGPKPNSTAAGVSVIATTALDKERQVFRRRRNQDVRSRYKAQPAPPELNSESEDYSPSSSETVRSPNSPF

Structures are written as SMILES. Like-named read-outs stand apart in the source and are kept apart here.

This note sets out measurements from article doi:10.1101/2023.03.24.534094v2 (biorxiv, 2023).

Sequence of SRC (P12931 whole entry): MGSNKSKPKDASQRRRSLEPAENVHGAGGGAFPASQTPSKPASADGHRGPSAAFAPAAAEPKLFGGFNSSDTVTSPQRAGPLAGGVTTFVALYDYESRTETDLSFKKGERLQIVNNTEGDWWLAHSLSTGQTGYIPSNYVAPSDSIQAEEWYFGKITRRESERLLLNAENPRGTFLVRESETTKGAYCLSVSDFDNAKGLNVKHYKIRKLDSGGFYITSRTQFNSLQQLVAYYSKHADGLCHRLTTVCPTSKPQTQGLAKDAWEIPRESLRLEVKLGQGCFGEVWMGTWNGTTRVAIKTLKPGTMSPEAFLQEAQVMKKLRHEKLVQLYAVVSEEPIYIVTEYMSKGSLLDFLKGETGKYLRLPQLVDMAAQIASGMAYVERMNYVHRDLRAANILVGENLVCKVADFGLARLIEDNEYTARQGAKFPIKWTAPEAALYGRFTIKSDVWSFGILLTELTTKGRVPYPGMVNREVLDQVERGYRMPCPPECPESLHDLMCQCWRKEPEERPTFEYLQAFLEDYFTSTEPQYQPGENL
Sequence of p38a (Q16539 whole entry): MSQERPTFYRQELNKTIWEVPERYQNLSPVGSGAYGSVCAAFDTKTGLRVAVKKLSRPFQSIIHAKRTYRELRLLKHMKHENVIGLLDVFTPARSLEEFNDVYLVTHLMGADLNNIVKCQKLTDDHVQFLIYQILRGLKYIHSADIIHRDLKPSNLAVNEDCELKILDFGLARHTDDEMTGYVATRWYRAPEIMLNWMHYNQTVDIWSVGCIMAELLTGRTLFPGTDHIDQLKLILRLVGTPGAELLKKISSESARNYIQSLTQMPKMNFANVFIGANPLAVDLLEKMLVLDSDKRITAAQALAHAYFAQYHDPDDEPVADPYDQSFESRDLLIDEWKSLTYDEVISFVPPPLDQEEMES
Sequence of CaMK2d (Q13557 whole entry): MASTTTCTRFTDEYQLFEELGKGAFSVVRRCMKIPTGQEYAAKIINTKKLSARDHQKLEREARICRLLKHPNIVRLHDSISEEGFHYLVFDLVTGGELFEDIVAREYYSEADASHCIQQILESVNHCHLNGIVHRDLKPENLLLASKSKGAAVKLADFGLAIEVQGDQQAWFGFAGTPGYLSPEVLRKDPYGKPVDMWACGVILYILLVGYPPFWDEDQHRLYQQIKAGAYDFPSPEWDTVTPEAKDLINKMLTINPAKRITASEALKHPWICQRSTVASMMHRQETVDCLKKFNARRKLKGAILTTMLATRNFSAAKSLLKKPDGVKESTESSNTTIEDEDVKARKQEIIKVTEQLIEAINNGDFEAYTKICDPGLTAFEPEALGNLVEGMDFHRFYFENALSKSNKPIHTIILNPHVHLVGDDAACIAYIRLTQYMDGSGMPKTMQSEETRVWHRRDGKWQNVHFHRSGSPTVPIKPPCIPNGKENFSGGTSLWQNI
Sequence of EpHA4 (P54764 whole entry): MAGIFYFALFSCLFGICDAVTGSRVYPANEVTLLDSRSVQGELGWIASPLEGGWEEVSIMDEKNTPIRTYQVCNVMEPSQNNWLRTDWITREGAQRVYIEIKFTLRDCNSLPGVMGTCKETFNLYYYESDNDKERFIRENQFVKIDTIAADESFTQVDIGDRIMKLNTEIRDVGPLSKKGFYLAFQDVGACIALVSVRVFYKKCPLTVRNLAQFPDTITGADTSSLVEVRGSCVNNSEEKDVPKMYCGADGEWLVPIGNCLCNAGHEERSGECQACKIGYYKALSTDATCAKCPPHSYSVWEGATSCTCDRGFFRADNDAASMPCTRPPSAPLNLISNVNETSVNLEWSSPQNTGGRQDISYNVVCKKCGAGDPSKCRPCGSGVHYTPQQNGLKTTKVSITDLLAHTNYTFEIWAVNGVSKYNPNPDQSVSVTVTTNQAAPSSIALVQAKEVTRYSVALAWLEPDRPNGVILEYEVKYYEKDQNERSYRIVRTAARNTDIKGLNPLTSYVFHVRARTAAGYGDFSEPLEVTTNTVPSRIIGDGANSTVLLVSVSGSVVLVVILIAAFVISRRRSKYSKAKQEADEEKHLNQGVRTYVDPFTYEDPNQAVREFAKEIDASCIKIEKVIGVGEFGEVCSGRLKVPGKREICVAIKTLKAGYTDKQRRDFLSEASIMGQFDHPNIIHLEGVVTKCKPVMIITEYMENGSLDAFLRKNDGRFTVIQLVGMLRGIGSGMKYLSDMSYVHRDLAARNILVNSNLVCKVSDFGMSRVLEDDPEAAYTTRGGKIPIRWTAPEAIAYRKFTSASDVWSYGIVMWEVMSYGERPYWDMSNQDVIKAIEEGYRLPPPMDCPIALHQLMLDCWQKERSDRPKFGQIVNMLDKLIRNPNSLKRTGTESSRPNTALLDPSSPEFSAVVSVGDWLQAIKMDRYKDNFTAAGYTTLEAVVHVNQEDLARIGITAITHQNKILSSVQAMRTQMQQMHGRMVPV
Sequence of SRPK1 (Q96SB4 whole entry): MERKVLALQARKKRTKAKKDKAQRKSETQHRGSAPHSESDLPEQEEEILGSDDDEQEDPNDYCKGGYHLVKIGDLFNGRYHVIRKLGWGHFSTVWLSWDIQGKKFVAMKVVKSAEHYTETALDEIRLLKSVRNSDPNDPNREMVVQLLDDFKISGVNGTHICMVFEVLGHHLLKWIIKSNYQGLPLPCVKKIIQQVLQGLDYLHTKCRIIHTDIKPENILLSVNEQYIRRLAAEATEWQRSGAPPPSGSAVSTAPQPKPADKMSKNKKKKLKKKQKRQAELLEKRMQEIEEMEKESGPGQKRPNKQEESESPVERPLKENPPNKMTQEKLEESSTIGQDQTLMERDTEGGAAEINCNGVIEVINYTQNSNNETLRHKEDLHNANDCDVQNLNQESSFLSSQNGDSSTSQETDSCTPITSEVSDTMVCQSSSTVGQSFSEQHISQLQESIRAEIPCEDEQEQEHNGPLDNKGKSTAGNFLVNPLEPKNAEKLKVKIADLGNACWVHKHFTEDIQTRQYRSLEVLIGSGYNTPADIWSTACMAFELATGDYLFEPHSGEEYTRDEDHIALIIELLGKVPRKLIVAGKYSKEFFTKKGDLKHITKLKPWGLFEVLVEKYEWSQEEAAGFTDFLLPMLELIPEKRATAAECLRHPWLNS
Sequence of CDKL1 (Q00532 whole entry): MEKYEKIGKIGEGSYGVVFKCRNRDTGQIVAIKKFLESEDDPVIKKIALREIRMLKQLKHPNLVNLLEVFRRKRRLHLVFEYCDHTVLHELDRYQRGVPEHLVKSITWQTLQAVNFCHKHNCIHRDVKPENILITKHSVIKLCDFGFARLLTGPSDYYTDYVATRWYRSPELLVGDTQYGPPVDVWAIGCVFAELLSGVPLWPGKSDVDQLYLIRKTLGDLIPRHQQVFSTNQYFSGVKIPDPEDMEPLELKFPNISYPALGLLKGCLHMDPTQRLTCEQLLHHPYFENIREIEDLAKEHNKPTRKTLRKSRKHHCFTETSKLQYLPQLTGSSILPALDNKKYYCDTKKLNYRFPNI
Sequence of NDR2 (Q9Y2H1 whole entry): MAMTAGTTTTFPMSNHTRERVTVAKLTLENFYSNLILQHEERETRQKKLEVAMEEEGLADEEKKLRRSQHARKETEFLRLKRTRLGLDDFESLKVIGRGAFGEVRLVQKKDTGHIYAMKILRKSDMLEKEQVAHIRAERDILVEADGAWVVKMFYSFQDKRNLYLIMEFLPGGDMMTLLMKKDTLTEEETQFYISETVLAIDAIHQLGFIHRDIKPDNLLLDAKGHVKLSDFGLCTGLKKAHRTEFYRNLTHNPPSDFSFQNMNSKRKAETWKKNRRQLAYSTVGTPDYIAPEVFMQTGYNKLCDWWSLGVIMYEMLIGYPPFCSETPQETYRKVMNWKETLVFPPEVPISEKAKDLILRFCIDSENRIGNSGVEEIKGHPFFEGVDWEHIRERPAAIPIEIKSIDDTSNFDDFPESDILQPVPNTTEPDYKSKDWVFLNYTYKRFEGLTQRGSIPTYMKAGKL
Sequence of Erk2 (P28482 whole entry): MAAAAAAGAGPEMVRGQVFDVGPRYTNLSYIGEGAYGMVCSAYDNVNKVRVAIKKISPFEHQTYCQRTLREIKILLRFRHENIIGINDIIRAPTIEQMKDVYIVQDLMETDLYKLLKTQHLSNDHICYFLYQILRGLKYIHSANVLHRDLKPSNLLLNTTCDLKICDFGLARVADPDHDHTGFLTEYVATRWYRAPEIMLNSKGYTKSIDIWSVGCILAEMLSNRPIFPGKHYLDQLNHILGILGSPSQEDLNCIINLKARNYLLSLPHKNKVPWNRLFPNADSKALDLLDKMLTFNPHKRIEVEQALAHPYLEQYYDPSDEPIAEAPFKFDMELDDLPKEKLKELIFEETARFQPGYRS
Sequence of NEK7 (Q8TDX7 whole entry): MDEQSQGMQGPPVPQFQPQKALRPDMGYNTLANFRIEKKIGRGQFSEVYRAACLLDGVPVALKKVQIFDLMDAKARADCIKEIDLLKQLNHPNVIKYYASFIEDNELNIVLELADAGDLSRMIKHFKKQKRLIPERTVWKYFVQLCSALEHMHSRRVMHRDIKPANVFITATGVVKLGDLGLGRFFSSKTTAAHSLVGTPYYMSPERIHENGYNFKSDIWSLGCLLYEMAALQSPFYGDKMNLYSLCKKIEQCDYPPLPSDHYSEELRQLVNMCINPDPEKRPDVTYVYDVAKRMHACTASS

For the compound `CNc1ncc2cc(-c3cc(Cl)ccc3Cl)c(=O)n(CCCCN)c2n1` [compound 8, 8-(4-Aminobutyl)-6-(2,5-dichlorophenyl)-2-(methylamino)pyrido[2,3-d]pyrimidin-7(8H)-one], the ΔTm at 10 µM on p38a (read-out: dTm 8) is 6 °C; at FECH (read-out: dTm 8) it was -1.7 °C; on SRC (read-out: dTm 8), 0.6 °C; at EpHA4 (read-out: dTm 8), 4.7 °C; on NDR2 (read-out: dTm 8) it was 0.4 °C; on CaMK2d (read-out: dTm 8) it was 0.4 °C. In addition, the ΔTm at 10 µM on DYRK1A (read-out: dTm 8) is -0.5 °C; on DRAK2 (read-out: dTm 8), 0.1 °C; on NEK7 (read-out: dTm 8) it was -0.2 °C; at PIM3 (read-out: dTm 8) it was 1 °C; at Erk2 (read-out: dTm 8), 0.1 °C; at DCAMKL1 (read-out: dTm 8), 1.2 °C. In addition, the ΔTm at 10 µM turned out to be 0.2 °C on CDKL1 (read-out: dTm 8) and 0.3 °C on SRPK1 (read-out: dTm 8).

With `CNc1ncc2cc(-c3cc(Br)ccc3Br)c(=O)n(CCCCN)c2n1` [compound 11, 8-(4-Aminobutyl)-6-(2,5-dibromophenyl)-2-(methylamino)pyrido[2,3-d]pyrimidin-7(8H)-one], the ΔTm at 10 µM on p38a (read-out: dTm 11) is 6.4 °C; on FECH (read-out: dTm 11), -1.6 °C; on SRC (read-out: dTm 11) it was 0.4 °C; at EpHA4 (read-out: dTm 11), 4.3 °C; at NDR2 (read-out: dTm 11), 0.5 °C; at CaMK2d (read-out: dTm 11), 0.2 °C. Besides, the ΔTm at 10 µM is -0.3 °C on DYRK1A (read-out: dTm 11); 0 °C at DRAK2 (read-out: dTm 11); -0.2 °C at NEK7 (read-out: dTm 11); 0.9 °C on PIM3 (read-out: dTm 11); 0.1 °C at Erk2 (read-out: dTm 11); 1.1 °C on DCAMKL1 (read-out: dTm 11). Moreover, the ΔTm at 10 µM at CDKL1 (read-out: dTm 11) turned out to be 0.4 °C; on SRPK1 (read-out: dTm 11), 0.2 °C.

Consider `CNc1ncc2cc(-c3cc(C(F)(F)F)ccc3Cl)c(=O)n(CCCCN)c2n1` [compound 9, 8-(4-Aminobutyl)-6-(2-chloro-5-(trifluoromethyl)phenyl)-2-(methylamino)pyrido[2,3-d]pyrimidin-7(8H)-one], for which the ΔTm at 10 µM at p38a (read-out: dTm 9) is 4.2 °C; on FECH (read-out: dTm 9), -1.7 °C; at SRC (read-out: dTm 9) it was 0 °C; on EpHA4 (read-out: dTm 9) it was 2.9 °C; on NDR2 (read-out: dTm 9), 0.1 °C; at CaMK2d (read-out: dTm 9), 0.2 °C. Moreover, the ΔTm at 10 µM on DYRK1A (read-out: dTm 9) is -0.5 °C; on DRAK2 (read-out: dTm 9), 0 °C; on NEK7 (read-out: dTm 9), 0.4 °C; at PIM3 (read-out: dTm 9), 0.4 °C; on Erk2 (read-out: dTm 9), 0 °C; at DCAMKL1 (read-out: dTm 9), 0.5 °C. Besides, the ΔTm at 10 µM on CDKL1 (read-out: dTm 9) worked out at 0 °C; at SRPK1 (read-out: dTm 9), 0.1 °C.

Turning to `CNc1ncc2cc(-c3cc(F)c(-c4cccc(C)n4)cc3F)c(=O)n(CCCCN)c2n1` [compound 12, 8-(4-Aminobutyl)-6-(2,5-difluoro-4-(6-methylpyridin-2-yl)phenyl)-2-(methylamino)pyrido[2,3-d]pyrimidin-7(8H)-one], the ΔTm at 10 µM was 0.4 °C at p38a (read-out: dTm 12); -0.6 °C on FECH (read-out: dTm 12); 1.2 °C on SRC (read-out: dTm 12); 1.6 °C at EpHA4 (read-out: dTm 12); 5.2 °C on NDR2 (read-out: dTm 12); -0.2 °C on CaMK2d (read-out: dTm 12). Moreover, the ΔTm at 10 µM at DYRK1A (read-out: dTm 12) was 0.1 °C; on DRAK2 (read-out: dTm 12), 5.7 °C; on NEK7 (read-out: dTm 12) it was -2.1 °C; on PIM3 (read-out: dTm 12), -1.2 °C; on Erk2 (read-out: dTm 12), -1.8 °C; at DCAMKL1 (read-out: dTm 12), -1.6 °C. Moreover, the results for the ΔTm at 10 µM on CDKL1 (read-out: dTm 12) and on SRPK1 (read-out: dTm 12) were 0.2 °C and 0 °C, respectively.

With `CNc1ncc2cc(-c3cc(Cl)ccc3Br)c(=O)n(CCCCN)c2n1` [compound 10, 8-(4-Aminobutyl)-6-(2-bromo-5-chlorophenyl)-2-(methylamino)pyrido[2,3-d]pyrimidin-7(8H)-one], the ΔTm at 10 µM on p38a (read-out: dTm 10) is 6.1 °C; at FECH (read-out: dTm 10) it was -1.7 °C; on SRC (read-out: dTm 10), 0.6 °C; on EpHA4 (read-out: dTm 10), 5.1 °C; on NDR2 (read-out: dTm 10), 0.4 °C; on CaMK2d (read-out: dTm 10), 0.5 °C. Besides, the ΔTm at 10 µM on DYRK1A (read-out: dTm 10) is -0.6 °C; on DRAK2 (read-out: dTm 10) it was 0.1 °C; at NEK7 (read-out: dTm 10) it was -0.5 °C; on PIM3 (read-out: dTm 10), 0.8 °C; at Erk2 (read-out: dTm 10), 0.1 °C; at DCAMKL1 (read-out: dTm 10), 0.9 °C. Moreover, the ΔTm at 10 µM at CDKL1 (read-out: dTm 10) came to 0.3 °C; at SRPK1 (read-out: dTm 10), 0.2 °C.
